From patent US11306063B2, “Heterocyclic naphthoquinones derivatives for use in the treatment of cancers including Cushing disease” (Commissariat a l'Energie Atomique et aux Energies …, priority 2016, dated 2022)

How the values were obtained:
[1] = system: MDA-MB231 triple negative breast cancer cells; experiment: Wounding assay, MDA-MB231; assay type: cell-based; settings: from 1 μM concentration; mitomycine 2 μg/ml; 24 hours
Protocol: (§1) In addition the migratory capacity of two additional triple negative breast cancer cells lines: the metastatic MDA-MB231 and BT-549 showing high migratory capacity was analyzed in a classical wound assay.
(§2) BT-549, MDA-MB231 cell lines were issued from the American Type Culture Collection (ATCC). For wounding assays, cells were seeded in 24-well microplates (Culture Insert 21, ref 250210, Ibidi®). […] Cell spreading was then visualized during 24 hours by videomicroscopy (1 acquisition each 30 min). A representative picture of 3 is presented at 0 and 12 hours of drug treatment out. In Graphs, curves represents the empty surface (devoid of cells) between the two cell layers (delimited by using Image J software).

USP8-FL = USP8-FL (Homo sapiens, UniProt P40818); experiment: biochemical
p53 in HCT116 cells = experiment: Protein expression by immunoblot, HCT116; assay type: cell-based, human; settings: dose dependent; FIG. 7B
Protocol: Actin or Tubulin (Tub) serve as loading controls. One representative experiment out of three is presented.
Cells were treated by either DMSO (0.5%) or increasing doses of the selected molecules from 1 μM to 10 μM over 6 to 24 hours as indicated. Cell lysates were analyzed by immunoblotting following standard procedure using primary antibodies from Cell Signaling: anti-total P53 (#9282), anti-phosphoP53 Kit (#9919), anti-cyclinD1 (#2926), anti-FAS (#3189), anti EGFR (#4267), anti-Phospho (tyr1068) EGFR (#2234), anti Met (#4560), anti-Akt (#9272), anti Phospho(Ser473)-Akt (#9271) or anti-Myc (Santa Cruz Technology #Sc-40). Tubulin was detected using anti α-tubulin primary antibody (in-house: the polyclonal Glu-tubulin antibody (L4) is available commercially from Abcys (Paris, France)). HRP-coupled anti-rabbit (#A6154) and anti-mouse (#A4416) secondary antibodies were purchased from Sigma. HRP activity was detected through HRP chemoluminescence detection reagent (Millipore, #WBLUF0100). Apoptotic cell death induction was observed through the observation of PARP cleavage using anti-PARP primary antibodies anti-PARP (46D11) (#9532). Positive control was Epotoside at 50 μM or 100 μM, a known drug inducing cancerous cell death by apoptosis.

[2] = system: BT-549 triple negative breast cancer cells; experiment: Wounding assay, BT-549; assay type: cell-based; settings: from 1 μM concentration; mitomycine 2 μg/ml; 24 hours
Protocol: as §1, §2

USP8^CD = molecular target: T1, USP8^CD (Homo sapiens, UniProt P40818); experiment: tri-Ub^K63 chains hydrolysis by USP8^CD (western blot); assay type: biochemical; settings: FIG. 1D, at the indicated concentrations
T1 construct: the purified catalytic domain of USP8 (USP8^CD, in-house purified); made in house; host or cells: E. coli BL21 Gold
Protocol: The degradation of purified lysine 63-linked tree-Ubiquitin chains (triUb^K63) over a 90 minutes period of time was visualized by western blot analysis. […] Enzymatic assay was performed in a HEPES buffer (50 mM pH7.4, 150 mM NaCl, 0.5 mM EDTA, 2% glycerol, 0.2 mg/ml BSA, 5 mMDTT).

Chain of USP8-FL (P40818 whole entry): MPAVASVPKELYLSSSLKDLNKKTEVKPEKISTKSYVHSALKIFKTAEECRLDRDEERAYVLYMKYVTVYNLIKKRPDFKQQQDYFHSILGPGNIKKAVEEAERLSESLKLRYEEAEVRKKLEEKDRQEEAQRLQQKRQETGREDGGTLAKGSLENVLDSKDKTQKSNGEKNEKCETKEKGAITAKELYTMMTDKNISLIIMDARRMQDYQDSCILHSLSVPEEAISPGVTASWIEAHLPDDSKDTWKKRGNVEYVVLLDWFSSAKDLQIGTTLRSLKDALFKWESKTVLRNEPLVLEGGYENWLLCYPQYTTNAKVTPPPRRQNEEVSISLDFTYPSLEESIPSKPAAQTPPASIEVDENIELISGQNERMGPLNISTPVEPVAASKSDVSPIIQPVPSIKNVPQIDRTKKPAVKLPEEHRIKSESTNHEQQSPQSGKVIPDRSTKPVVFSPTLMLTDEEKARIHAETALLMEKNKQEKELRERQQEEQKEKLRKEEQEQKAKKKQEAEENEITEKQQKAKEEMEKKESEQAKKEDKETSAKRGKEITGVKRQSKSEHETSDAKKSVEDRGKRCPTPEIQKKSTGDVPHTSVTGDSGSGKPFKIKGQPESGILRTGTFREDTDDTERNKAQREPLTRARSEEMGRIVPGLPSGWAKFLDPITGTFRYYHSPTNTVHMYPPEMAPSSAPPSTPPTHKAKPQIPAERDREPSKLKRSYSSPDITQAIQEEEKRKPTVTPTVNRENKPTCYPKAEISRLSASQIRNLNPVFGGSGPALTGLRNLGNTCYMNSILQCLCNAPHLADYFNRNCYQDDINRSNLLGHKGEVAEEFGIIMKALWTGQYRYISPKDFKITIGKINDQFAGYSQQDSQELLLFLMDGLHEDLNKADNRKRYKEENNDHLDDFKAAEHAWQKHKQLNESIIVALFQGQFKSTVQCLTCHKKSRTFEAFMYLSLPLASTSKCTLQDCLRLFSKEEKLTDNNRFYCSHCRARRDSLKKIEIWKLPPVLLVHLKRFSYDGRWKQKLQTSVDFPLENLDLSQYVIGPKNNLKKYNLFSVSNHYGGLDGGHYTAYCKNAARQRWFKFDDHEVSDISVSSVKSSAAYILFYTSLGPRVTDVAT
T1 sequence (P40818 777-1109 limits assumed): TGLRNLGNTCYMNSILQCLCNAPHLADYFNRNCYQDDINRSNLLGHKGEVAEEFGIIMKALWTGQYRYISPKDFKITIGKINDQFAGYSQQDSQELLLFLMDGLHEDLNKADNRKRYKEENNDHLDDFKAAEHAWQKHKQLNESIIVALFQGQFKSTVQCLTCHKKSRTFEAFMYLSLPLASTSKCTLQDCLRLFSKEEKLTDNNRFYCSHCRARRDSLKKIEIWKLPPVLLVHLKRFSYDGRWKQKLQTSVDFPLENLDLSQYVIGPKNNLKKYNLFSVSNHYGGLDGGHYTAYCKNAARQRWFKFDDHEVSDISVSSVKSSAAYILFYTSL

SMILES | cell migration in wounding assay, MDA-MB231 [1] | IC50 (USP8-FL) | p53 expression, HCT-116 (p53 in HCT116 cells) | cell migration in wounding assay, BT-549 [2] | inhibition of tri-Ub^K63 chains hydrolysis by USP8^CD (USP8^CD)
CCCCS(=O)(=O)Cc1nc2c(nc1CS(=O)(=O)CCCC)C(=O)c1ccccc1C2=O [PCR6236] | prevents triple negative breast cancer cell migration | < 30 nM | restored high levels of p53 expression | prevents triple negative breast cancer cell migration | 
CCCCS(=O)(=O)Cc1nc2c(o1)C(=O)c1ccccc1C2=O [PCR9301] |  |  |  |  | full inhibition
